According to ChEMBL document CHEMBL1909046, “DrugMatrix in vitro pharmacology data”:

Columns and labels:
[1] = target: T1, Calcitonin receptor (Homo sapiens, UniProt P30988); format: cell membranes, Membrane; conditions: t47d; also: in other assays of this panel Not Active means under 50% inhibition at 10 µM
T1 sequence (P30988 whole entry): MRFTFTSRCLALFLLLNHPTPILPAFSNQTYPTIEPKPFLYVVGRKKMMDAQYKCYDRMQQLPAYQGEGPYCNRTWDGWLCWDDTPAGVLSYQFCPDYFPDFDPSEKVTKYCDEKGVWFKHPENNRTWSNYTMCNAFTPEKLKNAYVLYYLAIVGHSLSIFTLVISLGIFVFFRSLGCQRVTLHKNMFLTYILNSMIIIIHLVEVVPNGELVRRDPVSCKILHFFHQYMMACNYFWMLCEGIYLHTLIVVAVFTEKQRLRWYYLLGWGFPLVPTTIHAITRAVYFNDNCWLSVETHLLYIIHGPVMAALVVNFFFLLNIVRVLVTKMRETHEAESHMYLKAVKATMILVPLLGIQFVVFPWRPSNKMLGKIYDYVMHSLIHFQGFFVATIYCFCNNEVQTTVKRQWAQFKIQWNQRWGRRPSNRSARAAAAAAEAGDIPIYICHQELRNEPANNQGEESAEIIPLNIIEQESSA

[2] = target: T2, Muscarinic acetylcholine receptor M5 (Homo sapiens, UniProt P08912); format: cell membranes, CHO-K1, Membrane; conditions: cho-k1; also: in other assays of this panel Not Active means under 50% inhibition at 10 µM
T2 sequence (P08912 whole entry): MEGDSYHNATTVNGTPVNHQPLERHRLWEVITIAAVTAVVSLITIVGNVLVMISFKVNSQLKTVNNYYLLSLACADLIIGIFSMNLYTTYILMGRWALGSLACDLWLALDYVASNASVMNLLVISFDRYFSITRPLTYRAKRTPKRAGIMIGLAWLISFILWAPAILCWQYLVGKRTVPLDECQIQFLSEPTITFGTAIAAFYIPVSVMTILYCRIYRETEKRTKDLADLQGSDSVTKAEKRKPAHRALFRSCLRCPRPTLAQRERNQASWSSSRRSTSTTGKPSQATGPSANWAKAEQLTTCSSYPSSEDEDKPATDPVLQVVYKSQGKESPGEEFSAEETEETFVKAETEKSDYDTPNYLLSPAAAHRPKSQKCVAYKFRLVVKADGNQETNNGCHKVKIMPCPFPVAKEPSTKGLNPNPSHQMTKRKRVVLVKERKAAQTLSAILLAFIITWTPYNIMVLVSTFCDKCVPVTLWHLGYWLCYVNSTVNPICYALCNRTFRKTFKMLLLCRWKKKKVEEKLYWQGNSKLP

[3] = target: T3, D(4) dopamine receptor (Homo sapiens, UniProt P21917); assay: DRUGMATRIX: Dopamine D4.2 radioligand binding (ligand: [3H] Spiperone); format: cell membranes, CHO-K1, Membrane; conditions: cho-k1; Not Active = under 50% inhibition at 10 µM
T3 sequence (P21917 whole entry): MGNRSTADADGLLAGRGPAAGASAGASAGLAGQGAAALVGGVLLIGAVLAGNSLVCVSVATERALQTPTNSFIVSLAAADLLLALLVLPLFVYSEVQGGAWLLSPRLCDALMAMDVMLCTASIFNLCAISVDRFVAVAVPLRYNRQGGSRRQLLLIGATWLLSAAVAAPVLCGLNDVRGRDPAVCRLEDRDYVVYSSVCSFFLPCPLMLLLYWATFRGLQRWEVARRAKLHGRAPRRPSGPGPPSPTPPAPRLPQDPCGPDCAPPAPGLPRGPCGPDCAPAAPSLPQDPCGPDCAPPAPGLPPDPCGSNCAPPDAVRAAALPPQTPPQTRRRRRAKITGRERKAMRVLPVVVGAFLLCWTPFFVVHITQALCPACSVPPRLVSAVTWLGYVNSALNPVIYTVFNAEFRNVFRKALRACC

[4] = target: T4, Estrogen receptor (Homo sapiens, UniProt P03372); conditions: sf9; also: in other assays of this panel Not Active means under 50% inhibition at 10 µM
T4 sequence (P03372 whole entry): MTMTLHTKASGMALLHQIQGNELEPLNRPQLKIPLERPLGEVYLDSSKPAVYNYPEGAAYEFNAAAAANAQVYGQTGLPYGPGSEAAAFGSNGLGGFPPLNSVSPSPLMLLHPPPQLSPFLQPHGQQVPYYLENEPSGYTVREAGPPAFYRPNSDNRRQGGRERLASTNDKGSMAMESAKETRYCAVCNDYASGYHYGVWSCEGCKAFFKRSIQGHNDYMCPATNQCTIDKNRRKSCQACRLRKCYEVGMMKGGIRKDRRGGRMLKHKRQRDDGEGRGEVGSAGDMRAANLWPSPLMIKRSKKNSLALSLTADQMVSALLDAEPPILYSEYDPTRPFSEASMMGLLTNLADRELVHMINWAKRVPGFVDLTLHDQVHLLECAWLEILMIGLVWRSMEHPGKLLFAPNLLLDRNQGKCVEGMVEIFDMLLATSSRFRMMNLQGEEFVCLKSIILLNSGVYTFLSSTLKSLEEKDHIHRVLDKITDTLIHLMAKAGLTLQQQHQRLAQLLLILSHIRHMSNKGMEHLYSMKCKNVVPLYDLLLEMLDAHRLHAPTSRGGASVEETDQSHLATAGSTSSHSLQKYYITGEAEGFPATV

[5] = target: Protein phosphatase 3 catalytic subunit alpha (Homo sapiens, UniProt Q08209); parameters: species or system Escherichia coli;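 also: inhibition of calcineurin (PP2B) enzyme activity, measured with DiFMUP as the substrate; in other assays of this panel Not Active means under 50% inhibition at 10 µM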
[6] = target: T5, Caspase-1 (Homo sapiens, UniProt P29466); parameters: species or system Escherichia coli
T5 sequence (P29466 whole entry): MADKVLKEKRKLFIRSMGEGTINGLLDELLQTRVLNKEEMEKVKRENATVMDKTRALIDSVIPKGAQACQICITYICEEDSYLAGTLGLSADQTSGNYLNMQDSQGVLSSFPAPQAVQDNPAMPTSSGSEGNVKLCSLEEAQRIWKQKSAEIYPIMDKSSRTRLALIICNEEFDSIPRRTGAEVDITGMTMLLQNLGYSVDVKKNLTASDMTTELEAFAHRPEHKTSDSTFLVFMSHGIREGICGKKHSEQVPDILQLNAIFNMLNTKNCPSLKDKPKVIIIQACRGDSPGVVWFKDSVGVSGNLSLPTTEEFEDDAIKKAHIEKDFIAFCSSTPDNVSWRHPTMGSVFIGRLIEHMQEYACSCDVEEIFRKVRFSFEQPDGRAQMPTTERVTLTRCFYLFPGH

[7] = DRUGMATRIX: Platelet-Derived Growth Factor (PDGF) radioligand binding (ligand: [125I] PDGF); format: cell-based; conditions: nih3t3; Not Active = under 50% inhibition at 10 µM
[8] = DRUGMATRIX: GABAA, Chloride Channel, TBOB radioligand binding (ligand: [3H] TBOB); format: cell membranes, Rattus norvegicus, Wistar, Cerebral cortex, Membrane; conditions: Not Active = under 50% inhibition at 10 µM

CC(C)NCC(O)COc1ccc(CC(N)=O)cc1 (stereo not given) [ATENOLOL]
Not Active: IC50 [1] | IC50 [2] | IC50 [3] | IC50 [4] | IC50 [5] | IC50 [6] | IC50 [7] | Ki [7] | IC50 [8] | Ki [8]

O=C1c2ccccc2C(=O)C1c1ccccc1 [PHENINDIONE]
Not Active: IC50 [1] | IC50 [2] | IC50 [3] | IC50 [4] | IC50 [5] | IC50 [6] | IC50 [7] | Ki [7] | IC50 [8] | Ki [8]

O=c1[nH]cnc2c1ncn2[C@H]1CC[C@@H](CO)O1 [DIDANOSINE]
Not Active: IC50 [1] | IC50 [2] | IC50 [3] | IC50 [4] | IC50 [5] | IC50 [6] | IC50 [7] | Ki [7] | IC50 [8] | Ki [8]

CC(=O)Nc1ccc2c(c1)Cc1ccccc1-2 [2-ACETYLAMINOFLUORENE]
Not Active: IC50 [1] | IC50 [2] | IC50 [3] | IC50 [4] | IC50 [5] | IC50 [6] | IC50 [7] | Ki [7] | IC50 [8] | Ki [8]

CO[C@H]1O[C@@H]2O[C@@]3(C)CC[C@H]4[C@H](C)CC[C@@H]([C@H]1C)[C@@]24OO3
Not Active: IC50 [1] | IC50 [2] | IC50 [3] | IC50 [4] | IC50 [5] | IC50 [6] | IC50 [7] | Ki [7] | IC50 [8] | Ki [8]

CN(Cc1cc(Br)cc(Br)c1N)C1CCCCC1 [BROMHEXINE]
Not Active: IC50 [1] | IC50 [2] | IC50 [3] | IC50 [4] | IC50 [5] | IC50 [6] | IC50 [7] | Ki [7] | IC50 [8] | Ki [8]

CC12CCC(CC1=O)C2(C)C (stereo not given) [CAMPHOR]
Not Active: IC50 [1] | IC50 [2] | IC50 [3] | IC50 [4] | IC50 [5] | IC50 [6] | IC50 [7] | Ki [7] | IC50 [8] | Ki [8]

C[C@]12CC[C@@H](O)C[C@@H]1CC[C@@H]1[C@@H]2CC[C@]2(C)C(=O)CC[C@@H]12 [ANDROSTERONE]
Not Active: IC50 [1] | IC50 [2] | IC50 [3] | IC50 [5] | IC50 [6] | IC50 [7] | Ki [7] | IC50 [8] | Ki [8]

O=C(NCCN1CCOCC1)c1ccc(Cl)cc1 [MOCLOBEMIDE]
Not Active: IC50 [1] | IC50 [2] | IC50 [3] | IC50 [5] | IC50 [6] | IC50 [7] | Ki [7] | IC50 [8] | Ki [8]

NC(=O)CN1CCCC1=O
Not Active: IC50 [1] | IC50 [2] | IC50 [3] | IC50 [5] | IC50 [6] | IC50 [7] | Ki [7] | IC50 [8] | Ki [8]

Oc1ccccc1 [PHENOL]
Not Active: IC50 [1] | IC50 [2] | IC50 [3] | IC50 [5] | IC50 [6] | IC50 [7] | Ki [7] | IC50 [8] | Ki [8]

COc1ccc(Cl)cc1C(=O)NCCc1ccc(S(=O)(=O)NC(=O)NC2CCCCC2)cc1 [GLYBURIDE]
Not Active: IC50 [1] | IC50 [2] | IC50 [3] | IC50 [5] | IC50 [6] | IC50 [7] | Ki [7] | IC50 [8] | Ki [8]

OC[C@H]1O[C@@H]2O[C@H]3[C@H](O)[C@@H](O)[C@@H](O[C@H]4[C@H](O)[C@@H](O)[C@@H](O[C@H]5[C@H](O)[C@@H](O)[C@@H](O[C@H]6[C@H](O)[C@@H](O)[C@@H](O[C@H]7[C@H](O)[C@@H](O)[C@@H](O[C@H]8[C@H](O)[C@@H](O)[C@@H](O[C@H]1[C@H](O)[C@H]2O)O[C@@H]8CO)O[C@@H]7CO)O[C@@H]6CO)O[C@@H]5CO)O[C@@H]4CO)O[C@@H]3CO [BETADEX]
Not Active: IC50 [1] | IC50 [2] | IC50 [3] | IC50 [5] | IC50 [6] | IC50 [7] | Ki [7] | IC50 [8] | Ki [8]

Nc1ccc(C(=O)O)c(O)c1 [AMINOSALICYLIC ACID]
Not Active: IC50 [1] | IC50 [2] | IC50 [3] | IC50 [5] | IC50 [6] | IC50 [7] | Ki [7] | IC50 [8] | Ki [8]

CC(C)(C#N)c1cc(Cn2cncn2)cc(C(C)(C)C#N)c1 [ANASTROZOLE]
Not Active: IC50 [1] | IC50 [2] | IC50 [3] | IC50 [5] | IC50 [6] | IC50 [7] | Ki [7] | IC50 [8] | Ki [8]

COc1cc([C@@H]2c3cc4c(cc3[C@H](O)[C@H]3COC(=O)[C@H]23)OCO4)cc(OC)c1OC [PODOFILOX]
Not Active: IC50 [1] | IC50 [2] | IC50 [3] | IC50 [5] | IC50 [6] | IC50 [7] | Ki [7] | IC50 [8] | Ki [8]

C[N+](C)(C)CCOC(N)=O.[Cl-] [CARBACHOL]
Not Active: IC50 [1] | IC50 [2] | Ki [3] | IC50 [5] | IC50 [6] | IC50 [7] | Ki [7] | IC50 [8] | Ki [8]
